Measurements reported in patent US20150140059A1 (The Regents of the University of California, priority 2012, published 2015).
pEC50: −log10 of the molar value. Like-named read-outs stand apart in the source and are kept apart here.

Tests used:
[1] = test system: C3H10T1/2 embryonic fibroblast cells; format: cell-based, mouse; conditions: C3H cells, 4 days; for pEC50: whole cell extracts, read-out: EC50 for inducing ALP activity
Experimental: (§1) For direct comparison to Oxy133, C3H cells were also treated with Oxy34 and Oxy49 (FIG. 2A). After 4 days, alkaline phosphatase (ALP) activity was measured in whole cell extracts.
(§2) Cells at confluence were treated with vehicle, Oxy133 or Oxy149. After 4 days, alkaline phosphatase (ALP) activity was measured in whole cell extracts.
(§3) Alkaline phosphatase (ALP) activity assay on whole cell extracts (13,14), and von Kossa staining of cell monolayers for mineralization (16) were performed as previously described.

[2] = test system: M2-10B4 bone marrow stromal cells; experiment: Alkaline phosphatase (ALP) activity assay in M2-10B4 cells; format: cell-based, mouse
Experimental: as §1, §2, §3

Lewis rats [3] = conditions: prior studies (ref. 15); cited from earlier work
[4] = test system: primary human mesenchymal stem cells; experiment: Osteogenic gene expression by quantitative RT-PCR in primary human MSC; format: cell-based; conditions: 5 μM
Description: (La Jolla, Calif.). […] Human primers sequences were: […] ID NO:1) and 3'-[NT] (SEQ ID NO:2), BSP 5'-[NT] ID NO:3) and 3'-[NT] ID NO:4), […] ID NO:5) and 3'-[NT]

[5] = test system: 8X-Gli luciferase reporter (Hedgehog pathway); format: cell-based, mouse; conditions: C3H cells, 48 hours
Experimental: (§4) After 4 days ALP activity, and after 7 days the expression of osteogenic genes ALP, BSP, and OSX was measured by quantitative real-time PCR (p<0.001 for control vs. Oxy133, and for Oxy133 vs. Oxy133+Cyc for ALP activity and for the expression of all genes shown). […] (p<0.001 for control vs. Oxy133 at 100 nM, 250 nM, and 1 μM Oxy133). (FIG. 4C) The amount of YFP-Smo captured by 20S beads or control beads was compared in samples containing either no competitor or 50 μM of a free competitor sterol (20S, Oxy133 or Oxy16). The YFP-Smo captured by the beads was measured by Western blot (top) and plotted (bottom) relative to the amount captured in the binding reaction with no competitor.
Cells at 70% confluence in 24-well plates were transiently transfected with Gli-dependent firefly luciferase and Renilla luciferase vectors as we have previously described (17,18). […] Luciferase activity was assessed using the Dual Luciferase Reporter Assay System (Promega Corporation, Madison, Wis.) according to manufacturer's instructions after cells were treated for 48 hours.

Lewis rats [6] = experiment: Rat posterolateral intertransverse process spinal fusion at L4-L5; format: in vivo; conditions: for Fusion Rates, Manual Palpation / Fusion Rates, Micro-CT / Fusion Rates, X-ray: at sacrifice (8 weeks); for bilateral fusion on radiographs (animals): four weeks; for Fusion Mass Bone Volume / Fusion Mass Bone Volume to Tissue Volume / Fusion Mass Total Tissue Volume / Fusion Mass Trabecular Separation / trabecular thickness per footnote: micro-CT
Experimental: Thirty-eight 8-week-old male Lewis rats were purchased from Charles River Laboratories (Wilmington, Mass.) and were maintained and housed at the UCLA vivarium in accordance with regulations set forth by the UCLA Office of Protection of Research Subjects. The study was performed under a protocol approved by the UCLA Animal Research Committee (ARC).
Animals were pre-medicated with sustained release buprenorphine thirty minutes prior to surgery and anesthetized with 2% isoflurane administered in oxygen (1 L/min). The surgical site was shaved and disinfected with Betadine and 70% ethanol. Posterolateral intertransverse process spinal fusion at L4-L5 was performed as in prior studies (21,22). The L6 vertebral body was identified using the iliac crest as a landmark. A 4-cm longitudinal midline incision was made through the skin and subcutaneous tissue over L4-L5 down to the lumbodorsal fascia. A 2-cm longitudinal paramedial incision was then made in the paraspinal muscles bilaterally to expose the transverse processes of L4-L5, which were decorticated with a high-speed burr. […] The implants were then covered with the overlying paraspinal muscles and the lumbodorsal fascia and skin were closed with 4-0 Prolene sutures (Ethicon, Inc., Somerville, N.J.). Animals were allowed to ambulate, eat, and drink ad libitum immediately after surgery.
Posteroanterior radiographs of the lumbar spine were taken on each animal at 4, 6, and 8 weeks after surgery using a Faxitron LX60 cabinet radiography system and evaluated blindly by two independent observers employing the following standardized scale: 0, no fusion; 1, unilateral fusion; and 2, complete bilateral fusion. The scores from the observers were added together and only a score of 4 was considered as complete fusion.
Eight weeks after surgery, animals were euthanized and the spines were surgically removed and evaluated by two blinded independent observers for motion between levels. Nonunion was recorded if motion was observed between the facets or transverse processes on either side. Complete fusion was recorded if no motion was observed bilaterally. Spines were scored as either fused or not fused. Unanimous agreement was required to consider complete fusion.
Each removed spine was analyzed by high resolution micro-computed tomography (micro-CT), using a SkyScan 1172 scanner (SkyScan, Belgium) with a voxel isotropic resolution of 20 μm and an X-ray energy of 55 kVp and […] to further assess the fusion rate and observe the fusion mass as we have previously reported (15). Three hundred and sixty projections were acquired over an angular range of 180° with steps of 0.5 with an exposure time of 220 msec/slice. Five frames were averaged at each rotation step to get better signal to noise ratio. A 0.5 mm aluminum filter was used to narrow down the X-ray beam frequency in order to minimize beam hardening artifact. Virtual image slices were reconstructed using the cone-beam reconstruction software version 2.6 based on the Feldkamp algorithm (SkyScan). These settings produced serial cross-sectional 1024×1024 pixel images. Sample re-orientation and 2D visualization were performed using DataViewer (SkyScan). 3D visualization was performed using Dolphin Imaging version 11 (Dolphin Imaging & Management Solutions, Chatsworth, Calif.). Fusion was defined as the bilateral presence of bridging bone between the L4 and L5 transverse processes. The reconstructed images were judged to be fused or not fused by two experienced independent observers. To quantify the density of bone formed within each fusion mass, the tissue volume of the mass (TV), trabecular bone volume within the mass (BV), BV/TV ratio, trabecular thickness, and trabecular separation were calculated. This was performed using DataViewer software with measurements across 501 axial slices (20 um per slice, 10.02 mm length) within each fusion mass, centered at the level of the intervertebral body of L4-5.

Smoothened (YFP-Smo) = target: T1, Smoothened (YFP-Smo) (Mus musculus, UniProt P56726); experiment: YFP-Smo capture by 20S-beads, competition with free sterol; format: binding; conditions: 50 μM free competitor sterol, Western blot, semi-quantitative
T1 construct: expressed in transfected cells
Experimental: as §4
We previously reported that 20S selectively activates Hh signaling by binding to the Smo receptor (19). To determine whether Oxy133 activates Hh signaling by the same mechanism, we tested the ability of Oxy133 to compete for YFP-tagged Smo (YFP-Smo) binding with a 20S analogue coupled to magnetic beads. As we previously reported, this analogue, nat-20S-yne, contains an alkyne moiety on the iso-octyl chain, allowing for click chemistry-mediated coupling to magnetic beads (20S-beads) (19). Using these beads for sterol-binding assays, the amount of YFP-Smo remaining on the beads relative to a no-competitor sample is measured by Western blotting. […]

T1 sequence (P56726 33-793): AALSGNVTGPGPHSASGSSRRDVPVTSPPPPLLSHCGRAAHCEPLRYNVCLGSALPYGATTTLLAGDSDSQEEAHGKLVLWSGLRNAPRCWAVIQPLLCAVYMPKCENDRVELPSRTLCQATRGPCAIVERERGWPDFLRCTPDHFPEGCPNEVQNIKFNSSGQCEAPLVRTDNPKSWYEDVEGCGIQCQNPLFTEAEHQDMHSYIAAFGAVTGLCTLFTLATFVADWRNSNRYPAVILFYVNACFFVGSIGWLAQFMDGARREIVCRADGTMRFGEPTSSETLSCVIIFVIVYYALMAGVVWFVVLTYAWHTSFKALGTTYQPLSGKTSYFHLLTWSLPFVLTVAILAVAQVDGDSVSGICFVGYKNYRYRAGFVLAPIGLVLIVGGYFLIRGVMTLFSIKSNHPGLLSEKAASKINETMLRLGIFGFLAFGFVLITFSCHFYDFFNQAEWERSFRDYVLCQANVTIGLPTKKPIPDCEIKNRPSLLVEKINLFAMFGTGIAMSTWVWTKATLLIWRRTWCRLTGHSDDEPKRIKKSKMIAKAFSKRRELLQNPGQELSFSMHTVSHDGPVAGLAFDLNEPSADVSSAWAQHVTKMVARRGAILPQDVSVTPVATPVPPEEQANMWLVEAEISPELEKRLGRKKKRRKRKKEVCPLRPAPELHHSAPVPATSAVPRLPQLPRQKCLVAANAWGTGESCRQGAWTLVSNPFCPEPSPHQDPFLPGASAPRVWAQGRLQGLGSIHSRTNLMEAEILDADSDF

CC1=C2C[C@H]3[C@@H](CC=C4C[C@@H](O)CC[C@@]43C)[C@@H]2CC[C@]12O[C@@H]1C[C@H](C)CN[C@H]1[C@H]2C [Cyclopamine, reference compound]
inhibition of Oxy133-induced ALP activity ([1]; 4 μM cyclopamine): completely inhibited
inhibition of Oxy133-induced ALP activity and osteogenic marker expression ([2]; M2 cells (data not shown)): completely inhibited

CC(C)CCCC(C)(O)C1CCC2C3CC(O)C4CC(O)CCC4(C)C3CCC21C (stereo not shown) [Oxy34]
pEC50 [1]: 6.10
fusion at the 4 week time point (Lewis rats [3]): no fusion was observed

C=C(C)CCC[C@](C)(O)[C@H]1CC[C@H]2[C@@H]3C[C@H](O)[C@H]4C[C@@H](O)CC[C@]4(C)[C@H]3CC[C@@]21C [Oxy49]
pEC50 [1]: 6.05
fusion at the 4 week time point (Lewis rats [3]): no fusion was observed

CCCCCC[C@](C)(O)[C@H]1CC[C@H]2[C@@H]3C[C@H](O)[C@H]4C[C@@H](O)CC[C@]4(C)[C@H]3CC[C@@]21C [Oxy133, (3S,5S,6S,8R,9S,10R,13S,14S,17S)-17-((S)-2-hydroxyoctan-2-yl)-10,13-dimethylhexadecahydro-1H-cyclopenta[a]phenanthrene-3,6-diol]
pEC50 ([1]; Mus musculus, 96 h): ~6.30
BSP expression increase ([4]; 2 and 4 weeks): 4 fold
OCN expression induction ([4]; 4 weeks): 2 fold
OSX expression induction ([4]; 4 weeks): 3 fold
BSP expression increase ([4]; one week): 2 fold
Gli-dependent reporter activity induction ([5]; 100 nM): 5 fold
Gli-dependent reporter activity induction ([5]; 1 μM): 17 fold
Fusion Rates, Manual Palpation (Lewis rats [6]; 0.2 mg): 0%
Fusion Rates, Micro-CT (Lewis rats [6]; 0.2 mg): 0%
Fusion Rates, X-ray (Lewis rats [6]; 0.2 mg): 0%
bilateral fusion, manual palpation (animals) (Lewis rats [6]; 2 mg, 8 weeks): 4/8
bilateral fusion, micro-CT (animals) (Lewis rats [6]; 2 mg, 8 weeks): 4/8
Fusion Rates, Manual Palpation (Lewis rats [6]; 2 mg): 50%
Fusion Rates, Micro-CT (Lewis rats [6]; 2 mg): 50%
Fusion Rates, X-ray (Lewis rats [6]; 2 mg): 50%
fusion on radiographs (animals) (Lewis rats [6]; 2 mg, eight weeks): 4/8
bilateral fusion on radiographs (animals) (Lewis rats [6]; 2 mg): 3/8
Fusion Mass Bone Volume (Lewis rats [6]; 2 mg, 8 weeks): 21.217 mm^3
Fusion Mass Bone Volume to Tissue Volume (Lewis rats [6]; 2 mg, 8 weeks): 27.104%
Fusion Mass Total Tissue Volume (Lewis rats [6]; 2 mg, 8 weeks): 78.586 mm^3
Fusion Mass Trabecular Separation (Lewis rats [6]; 2 mg, 8 weeks): 321.693 μm
trabecular thickness per footnote (Lewis rats [6]; 2 mg, 8 weeks): 134.008
bilateral fusion, manual assessment (animals) (Lewis rats [6]; 20 mg, 8 weeks): 6/7
Fusion Rates, Manual Palpation (Lewis rats [6]; 20 mg): 86%
Fusion Rates, Micro-CT (Lewis rats [6]; 20 mg): 100%
Fusion Rates, X-ray (Lewis rats [6]; 20 mg): 100%
bilateral fusion on radiographs (animals) (Lewis rats [6]; 20 mg): 6/7
Fusion Mass Bone Volume (Lewis rats [6]; 20 mg, 8 weeks): 19.592 mm^3
Fusion Mass Bone Volume to Tissue Volume (Lewis rats [6]; 20 mg, 8 weeks): 24.565%
Fusion Mass Total Tissue Volume (Lewis rats [6]; 20 mg, 8 weeks): 79.934 mm^3
Fusion Mass Trabecular Separation (Lewis rats [6]; 20 mg, 8 weeks): 310.912 μm
trabecular thickness per footnote (Lewis rats [6]; 20 mg, 8 weeks): 124.737
pEC50 ([2]; Mus musculus, M210B4, 96 h, read-out: EC50 for inducing ALP activity): ~6.36

CC(C)CCC[C@](C)(O)[C@H]1CC[C@H]2[C@@H]3CC=C4C[C@@H](O)CC[C@]4(C)[C@H]3CC[C@@]21C [Oxy 20S, 20(S)-hydroxycholesterol]
amount of YFP-Smo captured on 20S-coupled beads (Smoothened (YFP-Smo)): reduced the amount of YFP-Smo captured
